Patent publication US7763607B2, “Pharmaceutical compositions comprising CBx cannabinoid receptor modulators and potassium channel modulators” (Solvay Pharmaceuticals GmbH, priority 2006, dated 2010)
Like-named read-outs stand apart in the source and are kept apart here.

Assays:
[1] = system: rat perifused pancreatic islets; test: KATP opening effects through insulin secretion in rat perifused pancreatic islets; assay type: cell-based; conditions: insulin secretion at 11 mM glucose; for % Inhibition 0-30: 0-30 minutes; for % Inhibition 30-60: 30-60 minutes
Experimental: The animals were maintained on a 12 h light-dark cycle (lights on 06.00-18.00 h) with free access to standard rodent diet (B&K Universal Ltd standard rat and mouse diet (BK 001P), Beekay Feeds, B&K Universal Ltd, Hull, East Riding of Yorkshire) and tap water. The rats were conditioned to this environment for at least one week before experimentation.
Experimental procedures: After the rats were sacrificed, the branch of the bile duct leading to the liver and the duodenal end of the duct in the pancreas were clamped and the pancreas distended by injection of ice-cold 0.9 mg/ml collagenase solution into the bile duct. […] Following incubation, 10 ml of cold buffer was added and the suspension shaken vigorously by hand for 1 min. The islets were allowed to settle for 5 min on ice and washed three times using ice-cold buffer. Well formed and good sized islets from 3 rats were hand-picked (under a low power microscope) and pooled and a final selection of islet transferred to the perifusion apparatus.
Two experiments were performed in parallel in two identical, independent sets of perifusion apparatus each consisting of sufficient number of chambers. Each chamber was loaded with 20 hand-picked islets. Islets were perifused for an initial 30 min period in media containing 4 mM glucose. Perifusate was then collected at 2 min intervals for the remainder of the experiment. […] Perifusate fractions were stored at −75° C. until required for insulin assay. Insulin content of fractions were assayed using a 96-well ELISA assay (Mercodia). Initial insulin assays were performed in triplicate on three pooled fractions from each chamber.
Data were initially expressed as a simple mean of the three experiments for insulin secretion (pg/islet/min) and multiple t-tests (against the corresponding vehicle time period) used to determine potential significant effects of treatments. Alternatively, data were also calculated as a % vehicle effect for each experimental day.

rat SUR2 = rat SUR2 (Rattus norvegicus, UniProt Q63563); test: In vitro binding affinity to rodent KATP channels: SUR2 (COS cell membranes); conditions: rat SUR2 transiently expressed in COS cells; isoform (2A/2B) not given
Experimental: Similar to SUR1 (see above) competitive binding experiments were performed to characterize the affinity of the test compounds for the binding sites for sulfonylureas and KCOs on rat SUR2A. The affinity for the KCO site on SUR2A was assessed by displacement of [^3H]P1075 (see Schwanstecher et al., 1998; Dörschner H. et al. Mol. Pharmacol. 55 (1999) 1060-1066 (Dörschner et al., 1999)). The affinity of [^3H]glibenclamide for the […] SUR2 isoforms, however, is too weak to allow direct detection of binding using filtration assays. Therefore, two strategies can be used to detect binding to the sulfonylurea site on SUR2A. First, binding can be detected indirectly through allosteric displacement of [^3H]P1075 (Dörschner et al., 1999). Second, a mutated SUR2A (SUR2AY1205S, see above) with increased affinity for [^3H]glibenclamide allowing direct displacement of this tracer can be used.
Membranes from COS-cells transiently expressing rat SUR2A were incubated in the presence of the radioligands with increasing concentrations of test compounds as described above. […] For each test compound […] displacement curves were measured (displacement of [^3H]P1075 from the rat isoform of the wild type receptor and displacement of [^3H]glibenclamide from the rat isoform of SUR2AY1205S). Per curve 9-15 distinct concentrations were tested covering the relevant range. […]

hamster SUR1 = biological target: T1, hamster SUR1 (Cricetus cricetus, UniProt Q09427); test: biochemical; assay type: binding
T1 construct: expressed in transfected cells; host or cells: COS-1 cells (transient, pcDNA vector), membranes
Experimental: Competitive binding experiments were performed to characterize the affinity of the test compounds for the binding sites for sulfonylureas and KATP channel openers (KCOs) on hamster SUR1. To assess the affinity for the sulfonylurea site membranes from COS-cells transiently expressing hamster SUR1 were incubated in the presence of [^3H]glibenclamide with increasing concentrations of test compounds. […] Per curve 9-15 distinct concentrations were tested covering the relevant range. All measurements were repeated at least 5 times in independent experiments.
[^3H]glibenclamide (specific activity 51 Ci mmol^−1 was obtained from NEN (Dreieich, Germany). If suitable, stock solutions were prepared in dimethylsulfoxide with a final solvent concentration in the media below 1%.
SUR- or Kir6.x isoforms were used either subcloned in the pcDNA (hamster SUR1, mouse Kir6.2) or pCMV vector (rat SUR2A, SUR2B).
Rodent SUR-isoforms and KATP channels were transiently expressed in COS-1 cells as described in the literature. […]
The inhibition constant (Ki value) of the test substances was calculated from the respective IC50 value and was stated as the negative logarithmic value thereof (pKi).

[2] = system: glucose-stimulated insulin release; test: Inhibition of glucose-stimulated insulin release (potency comparison in text); conditions: relative to diazoxide

T1 sequence (Q09427 whole entry): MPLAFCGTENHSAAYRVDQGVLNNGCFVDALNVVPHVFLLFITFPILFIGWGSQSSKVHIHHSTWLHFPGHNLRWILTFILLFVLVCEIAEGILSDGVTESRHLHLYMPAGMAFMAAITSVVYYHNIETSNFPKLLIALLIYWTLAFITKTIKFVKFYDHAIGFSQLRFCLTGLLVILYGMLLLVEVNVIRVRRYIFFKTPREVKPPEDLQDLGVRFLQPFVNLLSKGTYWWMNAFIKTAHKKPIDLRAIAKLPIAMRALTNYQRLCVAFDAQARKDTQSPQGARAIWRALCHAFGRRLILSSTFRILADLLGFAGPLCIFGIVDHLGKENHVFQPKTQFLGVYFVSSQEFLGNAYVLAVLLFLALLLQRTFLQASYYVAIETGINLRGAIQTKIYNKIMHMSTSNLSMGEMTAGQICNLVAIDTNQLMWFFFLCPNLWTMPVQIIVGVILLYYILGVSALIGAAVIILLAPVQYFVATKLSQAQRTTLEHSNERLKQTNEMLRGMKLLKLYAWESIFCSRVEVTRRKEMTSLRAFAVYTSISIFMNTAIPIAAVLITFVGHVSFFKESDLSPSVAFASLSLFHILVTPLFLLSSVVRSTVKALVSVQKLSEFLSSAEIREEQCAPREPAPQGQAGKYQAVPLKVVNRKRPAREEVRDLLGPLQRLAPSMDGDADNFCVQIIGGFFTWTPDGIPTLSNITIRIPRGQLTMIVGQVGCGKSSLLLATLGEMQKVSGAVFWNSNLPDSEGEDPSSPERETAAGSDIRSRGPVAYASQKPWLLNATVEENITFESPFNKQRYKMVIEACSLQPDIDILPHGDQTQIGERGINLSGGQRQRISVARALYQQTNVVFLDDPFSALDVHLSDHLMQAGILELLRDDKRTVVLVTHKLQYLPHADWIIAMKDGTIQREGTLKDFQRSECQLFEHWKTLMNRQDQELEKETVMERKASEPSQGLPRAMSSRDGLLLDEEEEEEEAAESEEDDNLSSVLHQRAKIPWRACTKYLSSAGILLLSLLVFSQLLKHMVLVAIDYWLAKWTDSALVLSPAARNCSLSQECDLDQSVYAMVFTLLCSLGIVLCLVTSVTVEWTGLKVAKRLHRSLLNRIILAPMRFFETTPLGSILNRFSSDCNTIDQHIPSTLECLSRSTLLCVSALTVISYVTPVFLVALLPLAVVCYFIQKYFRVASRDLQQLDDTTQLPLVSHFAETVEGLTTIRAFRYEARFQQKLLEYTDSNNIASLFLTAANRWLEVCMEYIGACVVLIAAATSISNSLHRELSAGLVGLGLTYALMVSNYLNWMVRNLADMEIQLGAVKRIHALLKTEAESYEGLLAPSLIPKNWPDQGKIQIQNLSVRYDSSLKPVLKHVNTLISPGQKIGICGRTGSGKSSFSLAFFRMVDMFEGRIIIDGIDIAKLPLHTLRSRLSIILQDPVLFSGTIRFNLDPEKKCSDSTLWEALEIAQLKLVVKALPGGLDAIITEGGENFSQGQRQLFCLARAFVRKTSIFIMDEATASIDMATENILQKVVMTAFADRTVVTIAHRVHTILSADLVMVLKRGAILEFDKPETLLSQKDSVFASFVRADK
Sequence of rat SUR2 (Q63563 1-1503 Y1205S limits assumed, form open): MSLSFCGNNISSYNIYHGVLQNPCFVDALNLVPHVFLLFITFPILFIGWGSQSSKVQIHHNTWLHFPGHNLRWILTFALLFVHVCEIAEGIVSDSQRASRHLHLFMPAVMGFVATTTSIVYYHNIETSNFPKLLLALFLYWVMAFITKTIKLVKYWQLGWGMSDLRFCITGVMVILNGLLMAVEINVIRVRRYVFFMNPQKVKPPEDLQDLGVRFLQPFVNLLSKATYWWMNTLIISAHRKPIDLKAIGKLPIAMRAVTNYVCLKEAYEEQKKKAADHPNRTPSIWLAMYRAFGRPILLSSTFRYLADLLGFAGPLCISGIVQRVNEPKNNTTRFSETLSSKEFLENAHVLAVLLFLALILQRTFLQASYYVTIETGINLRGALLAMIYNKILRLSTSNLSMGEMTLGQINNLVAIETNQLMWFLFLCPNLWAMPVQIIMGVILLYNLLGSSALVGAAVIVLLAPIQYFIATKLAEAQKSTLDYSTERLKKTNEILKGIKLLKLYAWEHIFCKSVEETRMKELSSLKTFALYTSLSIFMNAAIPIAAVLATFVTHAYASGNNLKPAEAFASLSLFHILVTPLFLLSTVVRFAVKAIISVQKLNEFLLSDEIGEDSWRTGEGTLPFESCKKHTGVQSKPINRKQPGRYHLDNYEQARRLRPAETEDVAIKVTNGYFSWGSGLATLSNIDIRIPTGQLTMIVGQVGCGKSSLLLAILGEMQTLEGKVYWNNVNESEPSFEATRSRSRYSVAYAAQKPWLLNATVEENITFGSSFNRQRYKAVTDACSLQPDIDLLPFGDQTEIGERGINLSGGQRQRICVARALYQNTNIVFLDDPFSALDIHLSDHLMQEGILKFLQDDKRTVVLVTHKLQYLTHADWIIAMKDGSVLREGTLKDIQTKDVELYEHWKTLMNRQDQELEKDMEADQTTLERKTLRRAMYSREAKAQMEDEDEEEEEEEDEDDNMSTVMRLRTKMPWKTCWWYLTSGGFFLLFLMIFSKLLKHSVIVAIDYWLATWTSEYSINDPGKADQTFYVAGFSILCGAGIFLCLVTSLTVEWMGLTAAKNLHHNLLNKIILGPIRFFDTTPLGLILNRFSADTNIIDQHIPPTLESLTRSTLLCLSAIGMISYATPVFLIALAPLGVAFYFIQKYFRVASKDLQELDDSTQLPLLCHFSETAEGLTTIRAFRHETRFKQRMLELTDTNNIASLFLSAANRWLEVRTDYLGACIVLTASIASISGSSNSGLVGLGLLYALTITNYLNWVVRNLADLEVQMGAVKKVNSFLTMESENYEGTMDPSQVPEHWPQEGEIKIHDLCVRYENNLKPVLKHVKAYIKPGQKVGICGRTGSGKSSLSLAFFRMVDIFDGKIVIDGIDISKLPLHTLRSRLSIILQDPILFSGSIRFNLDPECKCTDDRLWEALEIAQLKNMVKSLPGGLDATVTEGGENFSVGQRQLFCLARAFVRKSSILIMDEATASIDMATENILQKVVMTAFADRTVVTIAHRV

| SMILES | % Inhibition 0-30 [1] [%] | % Inhibition 30-60 [1] [%] | further results |
| --- | --- | --- | --- |
| CON/C(=N\S(=O)(=O)c1ccc(Cl)cc1)N1C[C@H](c2cccc(F)c2)C(c2ccc(Cl)cc2)=N1 (stereo in doubt) [4-Chloro-N-{[3-(4-chloro-phenyl)-4-(3-fluoro-phenyl)-4,5-dihydro-pyrazol-1-yl]-methoxyamino-methylene}-benzenesulfonamide] | 90 | 95 |  |
| CCc1c(C(=O)NN2CCCCC2)nc(-c2ccccc2Cl)n1-c1ccc(Cl)cc1 [1-(4-Chloro-phenyl)-2-(2-chloro-phenyl)-5-ethyl-1H-imidazole-4-carboxylic acid piperidin-1-ylamide, reference compound] | 59 | 45 |  |
| CSc1c(C(=O)NN2CCCCC2)nc(-c2ccccc2Cl)n1-c1ccc(Cl)cc1 [1-(4-Chloro-phenyl)-2-(2-chloro-phenyl)-5-methylsulfanyl-1H-imidazole-4-carboxylic acid piperidin-1-ylamide] | 56 | 36 |  |
| CCCCC/C=C\C/C=C\C/C=C\C/C=C\CCCC(=O)OC(CO)CO [2-AG, Icosa-5,8,11,14-tetraenoic acid 2-hydroxy-1-hydroxymethyl-ethyl ester] |  |  | Affinity to SUR 2 (rat SUR2): 5.5 |
| CC1=NS(=O)(=O)c2cc(Cl)ccc2N1 [Diazoxide, diazoxide] |  |  | Ki (hamster SUR1; example in text on SUR binding, subunit not stated, read-out: pKi (converted)): 158 µM |
| CCCC(C)(C)c1ccc2c(c1)OC(C)(C)[C@@H]1CC=C(C)C[C@@H]21 [JW133, 3-(1,1-dimethyl-butyl)-6,6,9-trimethyl-6a,7,10,10a-tetrahydro-6H-benzo[c]chromene] |  |  | Affinity to SUR 2 (rat SUR2): 3.6; Ki (hamster SUR1; hamster SUR1 transiently expressed in COS cells, read-out: Affinity to SUR 1 (converted)): 1.26 µM |
| CN/C(=N\S(=O)(=O)N1CCOCC1)N1CC(c2ccccc2)C(c2ccc(Cl)cc2)=N1 (centres unmarked) [Mopholine-4-sulfonic acid [3-(4-chloro-phenyl)-4-phenyl-4,5-dihydro-pyrazol-1-yl]-methylamino-methyleneamide] | 83 | 91 |  |
| CN/C(=N\S(=O)(=O)N(C)C)N1CC(c2cccc(F)c2)C(c2ccc(Cl)cc2)=N1 (centres unmarked) [N-{[3-(4-Chloro-phenyl)-4-(3-fluoro-phenyl)-4,5-dihydro-pyrazol-1-yl]-methylamino-methylene}-N,N-dimethyl-sulfonamide] | 72 | 77 |  |
| CN/C(=N\S(=O)(=O)c1ccc(C(F)(F)F)cc1)N1CC(c2cccnc2)C(c2ccc(Cl)cc2)=N1 (centres unmarked) [N-{[3-(4-Chloro-phenyl)-4-pyridin-3-yl-4,5-dihydro-pyrazol-1-yl]-methylamino-methylene}-4-trifluoromethyl-benzenesulfonamide] | 58 | 31 |  |
| CC1(NC2=Nc3cc(Cl)sc3S(=O)(=O)N2)CC1 [NN-414] |  |  | times more potent than diazoxide to inhibit glucose-stimulated insulin release [2]: more than 100 times |
| CNC(=NS(=O)(=O)N1CCCCC1)C1=NN(c2ccc(Cl)cc2)C(c2ccccc2)C1 (centres unmarked) [Piperdine-1-sulfonic acid [1-(4-chloro-phenyl)-5-phenyl-4,5-dihydro-1H-pyrazol-3-yl]-methylamino-methyleneamide] | 84 | 47 |  |
| CN(C)CCNC(=NS(=O)(=O)N1CCCCC1)N1CC(c2ccccc2)C(c2ccc(Cl)cc2)=N1 (centres unmarked) [Piperidin-1-sulfonic acid [3-(4-chloro-phenyl)-4-phenyl-4,5-dihydro-pyrazol-1-yl]-(2-dimethylamino-ethyl-amino)-methyleneamide] | 71 | 64 |  |
| Cc1c(C(=O)NN2CCCCC2)nn(-c2ccc(Cl)cc2Cl)c1-c1ccc(Cl)cc1 [Rimonabant, 5-(4-Chloro-phenyl)-1-(2,4-dichloro-phenyl)-4-methyl-1H-pyrazole-3-carboxylic acid piperidin-1-ylamide, reference compound] | 22 | 18 |  |
